Where two headings read alike, the source gives them in different places.
System: iCell cardiomyocytes (human iPSC-derived cardiomyocytes)
Experiment: Intracellular Ca2+ flux / beating parameters in iCell cardiomyocytes (FLIPR tetra), 90 min or 24 h
Assay type: cell-based
Details: Homo sapiens, Cardiomyocyte, 0.00 µM = 100.00; for activity at 0.1 µM: 0.10 µM
Summary of the method: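 Gelatin-plated iCell cardiomyocytes (5,000/well) were dye-loaded for 2 h at 37 °C, then exposed for 90 min or 24 h to PCBs/metabolites (5× plates at 0.05–500 µM; 0.5% DMSO final) in triplicate. Ca2+ flux was read for 100 s at 8 Hz and 37 °C. Peak height, frequency, spacing CV and decay/rise ratio were vehicle-normalized and fitted with a four-parameter logistic model, with POD set at 1 SD of vehicle.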

[1] = 1.5 h, 90min, read-out: cm.amp.avg.90min
[2] = 1.5 h, 90min, read-out: cm.amp.cv.90min
[3] = 1.5 h, 90min, read-out: cm.bpm.90min
[4] = 1.5 h, 90min, read-out: cm.decay.rise.90min
[5] = 1.5 h, 90min, read-out: cm.spacing.cv.90min
[6] = 24 h, 24hrs, read-out: cm.amp.avg.24hrs
[7] = 24 h, 24hrs, read-out: cm.amp.cv.24hrs
[8] = 24 h, 24hrs, read-out: cm.bpm.24hrs
[9] = 24 h, 24hrs, read-out: cm.decay.rise.24hrs
[10] = 24 h, 24hrs, read-out: cm.spacing.cv.24hrs

Clc1ccc(Cl)c(-c2c(Cl)ccc(Cl)c2Cl)c1 [PCB95]
activity at 0.01 µM [1]: 91.5%
activity at 0.01 µM [2]: 105%
activity at 0.01 µM [3]: 99.1%
activity at 0.01 µM [4]: 101%
activity at 0.01 µM [5]: 118%
activity at 0.1 µM [1]: 99.9%
activity at 0.1 µM [2]: 86.3%
activity at 0.1 µM [3]: 96.5%
activity at 0.1 µM [4]: 103%
activity at 0.1 µM [5]: 104%
activity at 1 µM [1]: 84.6%
activity at 1 µM [2]: 116%
activity at 1 µM [3]: 85.3%
activity at 1 µM [4]: 109%
activity at 1 µM [5]: 92%
activity at 10 µM [1]: 101%
activity at 10 µM [2]: 120%
activity at 10 µM [3]: 86.5%
activity at 10 µM [4]: 120%
activity at 10 µM [5]: 120%
activity at 100 µM [1]: 9.49%
activity at 100 µM [2]: 441%
activity at 100 µM [3]: 0%
activity at 100 µM [4]: 36.2%
activity at 100 µM [5]: 78.1%
activity at 0.01 µM [6]: 115%
activity at 0.01 µM [7]: 139%
activity at 0.01 µM [8]: 110%
activity at 0.01 µM [9]: 92.5%
activity at 0.01 µM [10]: 142%
activity at 0.1 µM [6]: 181%
activity at 0.1 µM [7]: 73.7%
activity at 0.1 µM [8]: 113%
activity at 0.1 µM [9]: 99.1%
activity at 0.1 µM [10]: 137%
activity at 1 µM [6]: 76.5%
activity at 1 µM [7]: 36.8%
activity at 1 µM [8]: 43.9%
activity at 1 µM [9]: 54.1%
activity at 1 µM [10]: 61.3%
activity at 10 µM [6]: 144%
activity at 10 µM [7]: 77.4%
activity at 10 µM [8]: 79.2%
activity at 10 µM [9]: 109%
activity at 10 µM [10]: 127%
activity at 100 µM [6]: 0%
activity at 100 µM [7]: 0%
activity at 100 µM [8]: 0%
activity at 100 µM [9]: 0%
activity at 100 µM [10]: 0%
